{
  "source": "patent US20230390291A1",
  "about": "“TREATMENT OF SKIN DISORDERS WITH COMPOSITIONS COMPRISING AN EGFR INHIBITOR” (Sol-Gel Technologies Ltd., priority 2018, published 2023)",
  "key": {"[1]": {"tested_on": "psoriasis-induced human skin xenotransplants", "assay": "Histological evaluation of psoriasis-induced xenotransplants", "assay_type": "in vivo, beige-SCID mice", "conditions": "topical for 14 days, histology on Day 56", "from_the_text": "The objective of this study was to determine the efficacy of Erlotinib 5% as provided herein compared to the vehicle and Dexamethasone as shown at the Table below. The evaluation was based on histology analysis following application of the respective test formulations.\nThe efficacy study has been conducted on female mice. The total duration of the experiment was 8 weeks, upon receiving of the human skin. Normal skin from healthy volunteers were obtained for grafting. Healthy human abdominal skin pieces with a width of 0.4 mm and surface area of 1.5×1.5 cm were provided. The skin sample was preserved in isotonic saline solution and transplanted within 6-12 hours after skin donation. In addition, blood samples were collected from psoriatic patients having classic plaque psoriasis and not undergoing any treatment. 20 mL blood samples were taken from both males and females psoriatic patients (from psoriatic patients having classic plaque psoriasis and not undergoing any treatment), and peripheral blood mononuclear cells (PBMC) were separated immediately after blood withdrawal.\nMice: Beige-severe combined immunodeficient mice C.B-17/IcrHsdscid-bg (beige-SCID) mice (weight ˜25 g) were included in this study. Mice were monitored twice a week for vital signs such as weight, food intake, coat, eyes, anal genital areas, discharge/soiling, behavior and criteria related to skin transplantation. Normal healthy human donor skin were transplanted onto the beige-SCID mice as previously described (See Keren A. et al., Novel nanosome delivery system combined with siRNA targeting the antimicrobial gene DFB4: a new approach for psoriasis management?ExpDermatol. 2014; 23:464-465; Bracke S. et al.,Targeted silencing of DEFB4 in a bioengineered skin-humanized mouse model for psoriasis: development of siRNA SECosome-based novel therapies. ExpDermatol. 2014 ;23:199-201; Zaretsky M. et al., Directed evolution of a soluble human IL-17A receptor for the inhibition of psoriasis plaque formation in a mouse model. Chem Biol. 2013 21; 20:202-2; Gilhar A. et al., The beneficial effect of blocking Kv1.3 in the psoriasiform SCID mouse model. J Invest Dermatol. 2011;131:118 124; Keren A. et al., Innate lymphoid cells 3 induce psoriasis in xenotransplanted healthy human skin. J Allergy Clin Immunol. 2018;142:305-308.e6.).\nBritish Journal of Pharmacology 2010; 159:842-855).\nFour weeks following the engraftment, each mouse was injected (intradermally) with 1×10^7 IL-2 enriched allogeneic PBMC's from psoriatic patients (1×10^7 cells injected/mouse). Cells from different psoriasis patients were equally distributed between treatment groups. Each patient was represented in each treatment group.\nFourteen days following cells injections, the mice were divided into treatment groups (Table, see below) and treated according to the timeline indicated below (see Scheme 1). Each transplant was equally topically treated (50 μg) by using a sterile spatula.\nDexamethasone (D2915, Sigma): was freshly prepared for each administration by dilution in saline to final concentration (50 mg/ml). Dexamethasone serves as a positive control and was administered topically twice daily for 14 days following cells injections (at Day 42 following human skin transplantation) until the end of the study (Day 56).\nThe vehicle was administered topically (50 μg) once daily for 14 days as well.\nOn Day 56, the entire skin graft was excised and placed in 10% formaldehyde in saline overnight. Then, the specimens were placed in 70% ethanol and embedded and stained according to the standard Hematoxylin/Eosin protocol.\nSkin graft histological assessment was performed (according to the psoriatic criteria including epidermal thickness) using light microscopy, and two observers blindly performed the evaluations. Epidermal thickness was determined using an ocular micrometer at a minimum of 50 points along the epidermis selected to represent points of maximal and minimal thickness. […]"}, "[2]": {"conditions": "cited from earlier work"}, "Ki67": {"tested_on": "Ki67", "assay": "Epidermal proliferation of transplants, Ki67 immunohistochemical staining", "assay_type": "in vivo, beige-SCID mice", "conditions": "xenotransplants after 14 days of treatment", "description": "From the study of Example 11, the human skin xenotransplants were harvested and fixed in 10% saline-buffered formalin overnight followed by 70% ethanol. Sections were stained and visualized with immunohistochemistry.\nAntigen retrieval was performed on the slides for 20 minutes in a microwave followed by cooling at room temperature for 25 minutes. Specimens were blocked for 30 minutes to prevent nonspecific binding and incubated with the primary antibody (Ab) overnight. The following primary antibodies were used: mouse anti human Ki67. Samples were then washed and incubated for 30 minutes with a biotinylated secondary antibody (Jackson ImmunoResearch, West Grove, Pa.). Finally, samples were washed and incubated with streptavidin-horseradish peroxidase (Jackson ImmunoResearch, West Grove, Pa.). […] Samples were examined using light microscopy.\nSlides were evaluated by experienced blinded observers. The fields of immunostained sections were counted in three areas and presented randomly to the observer(s)."}, "[3]": {"conditions": "number of transplants out of 10"}},
  "note": "Structures can show the parent of a compound that is named as a salt. Where two headings read alike, the source gives them in different places.",
  "data": [
    {"molecule": "C[C@@H]1C[C@H]2[C@@H]3CCC4=CC(=O)C=C[C@]4(C)[C@@]3(F)[C@@H](O)C[C@]2(C)[C@@]1(O)C(=O)CO", "note": "[Dexamethasone]", "values": [
      {"measurement": "Complete Recovery", "setting": "[1]; [3]", "result": "9/10"},
      {"measurement": "Partial Recovery", "setting": "[1]; [3]", "result": "1/10"},
      {"measurement": "Psoriatic Features", "setting": "[1]; [3]", "result": "0/10"},
      {"measurement": "Complete Recovery", "setting": "[1]; percent of transplants", "result": "(90%)"},
      {"measurement": "Partial Recovery", "setting": "[1]; percent of transplants", "result": "(10%)"},
      {"measurement": "Psoriatic Features", "setting": "[1]; percent of transplants", "result": "(0%)"}
    ]},
    {"molecule": "C#Cc1cccc(Nc2ncnc3cc(OCCOC)c(OCCOC)cc23)c1", "note": "[Erlotinib hydrochloride]", "values": [
      {"measurement": "Solubility", "setting": "[2]; in acetone", "result": "practically insoluble"},
      {"measurement": "Solubility", "setting": "[2]; in acetonitrile", "result": "practically insoluble"},
      {"measurement": "Solubility", "setting": "[2]; in ethyl acetate", "result": "practically insoluble"},
      {"measurement": "Solubility", "setting": "[2]; in hexane", "result": "practically insoluble"},
      {"measurement": "Solubility", "setting": "[2]; in methanol", "result": "slightly soluble"},
      {"measurement": "Solubility", "setting": "[2]; in water", "result": "very slightly soluble"}
    ]},
    {"molecule": "C#Cc1cccc(Nc2ncnc3cc(OCCOC)c(OCCOC)cc23)c1", "note": "[Erlotinib, N-(3-ethynylphenyl)-6,7-bis(2-methoxyethoxy)-4-quinazolinamine]", "values": [
      {"measurement": "proliferation index (Ki-67) compared to vehicle-treated xenotransplants", "setting": "Ki67", "result": "significant decrease"}
    ]}
  ]
}
